Read-outs that look alike come from different tables or passages of the source.
What was measured:
[1] = target: T1, PKC β II (Homo sapiens, UniProt P05771); test: PKC enzyme assay (BIOTRAK Protein kinase C enzyme assay system, 32P-ATP phosphorylation of peptide […]); format: biochemical; conditions: for Ratio α/β: IC50 PKC α / IC50 PKC β II
T1 construct: purchased CALBIOCHEM
Source text: The method for determining the PKC inhibitory activity of the compound of the present invention is explained in the following. Inasmuch as PKCβII is present in greater number in intravascular cells than PKCβI, PKCβII was mainly used here to test the enzyme activity.
(§1) As the reagent for enzyme assay, BIOTRAK Protein kinase C enzyme assay system (hereinafter the system, Amersham), and as the PKC enzyme standard product, Protein Kinase C, Human Recombinant (CALBIOCHEM) were purchased and used in the assay. A substrate mixture was prepared by mixing calcium buffer (12 mM calcium acetate, 50 mM Tris/HCl pH 7.5, 0.05% (w/v) sodium azide), Lipid (0.3 mg/ml La-phosphatidyl-L-serine, […] phorbol 12-myristate 13-acetate, 50 mM Tris/HCl pH 7.5, 0.05% (w/v) sodium azide), peptide buffer (900 µM peptide […]), 50 mM Tris/HCl pH 7.5, 0.05% (w/v) sodium azide), DTT buffer (30 mM dithiothreitol, 50 mM Tris/HCl pH 7.5, 0.05% (w/v) sodium azide), and magnesium ATP buffer (1.2 mM ATP, […] pH 7.4, 72 mM magnesium chloride) all attached to the system in a ratio of 1:1:1:1:0.8 and adding [ y -32P]ATP (Amersham, cat. […] The PKC enzyme standard product was diluted with an assay buffer (10 mM Hepes pH 7.4, 0.01% Triton X-100) to a concentration of 400 ng/ml and used as the enzyme solution. The substrate mixture and a test substance (diluted to the final concentration of 1 nM-10 µM with dimethyl sulfoxide (DMSO)) were mixed at a ratio of 20:1. The enzyme solution was added in the amount equivalent to the substrate mixture and mixed, which was followed by incubation at 37°C for 15 minutes. The reaction terminator (300 mM orthophosphoric acid containing carmosine red) attached to the system was added in the amount equivalent to the substrate mixture to end the reaction, and the reaction mixture was spotted on a phosphocellulose paper (Whatman, P-81), washed twice with 75 mM orthophosphoric acid and assayed for radioactivity by BAS2000 (Fuji film).
(§2) The ratio of the radioactivity of the addition of the test substance to the addition of DMSO was determined, and IC50 was calculated from inhibition at each concentration.

[2] = target: T2, PKC α (Homo sapiens, UniProt P17252); test: as above; format: biochemical
T2 construct: purchased CALBIOCHEM
Method: as §1, §2

[3] = read-out: Inhibition of PKC activity IC50 PKC β II, Protein Kinase C, Human Recombinant, test substance 1 nM-10 µM, 37°C, 15 minutes
[4] = read-out: Inhibition of PKC activity IC50 PKC α; Protein Kinase C, Human Recombinant; test substance 1 nM-10 µM; 37°C, 15 minutes
[5] = Protein Kinase C, Human Recombinant, test substance 1 nM-10 µM, 37°C, 15 minutes, read-out: Inhibition of PKC activity IC50 PKC β II
[6] = Protein Kinase C, Human Recombinant; test substance 1 nM-10 µM; 37°C, 15 minutes; read-out: Inhibition of PKC activity IC50 PKC α

T1 sequence (P05771 other isoform, or with tags, fused parts or gaps): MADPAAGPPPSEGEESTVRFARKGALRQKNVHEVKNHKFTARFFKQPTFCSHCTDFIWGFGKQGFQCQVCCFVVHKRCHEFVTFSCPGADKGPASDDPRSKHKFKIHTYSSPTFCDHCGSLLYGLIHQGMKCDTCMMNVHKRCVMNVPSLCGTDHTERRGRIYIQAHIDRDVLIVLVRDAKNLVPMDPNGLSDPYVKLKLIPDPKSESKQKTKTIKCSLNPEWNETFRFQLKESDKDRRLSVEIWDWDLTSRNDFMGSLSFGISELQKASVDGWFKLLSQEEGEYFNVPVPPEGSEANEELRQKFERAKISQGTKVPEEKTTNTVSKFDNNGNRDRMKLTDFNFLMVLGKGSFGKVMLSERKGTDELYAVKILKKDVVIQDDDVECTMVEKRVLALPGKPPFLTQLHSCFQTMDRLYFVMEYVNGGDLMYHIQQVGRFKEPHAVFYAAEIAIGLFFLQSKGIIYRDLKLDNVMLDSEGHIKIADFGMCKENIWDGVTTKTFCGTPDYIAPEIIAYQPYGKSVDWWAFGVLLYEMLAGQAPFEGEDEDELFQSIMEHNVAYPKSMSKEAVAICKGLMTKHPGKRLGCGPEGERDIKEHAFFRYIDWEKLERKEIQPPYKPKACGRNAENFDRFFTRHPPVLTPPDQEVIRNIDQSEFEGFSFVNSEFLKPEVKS

Ratio α/β [1] | IC50 [1, 3] [µM] | IC50 [2, 4] [µM] | IC50 [1, 5] [µM] | IC50 [2, 6] [µM] | IC50 [1] [µM] | SMILES
57 | 0.01 | 0.569 | – | – | – | CCN(CC)C[C@H]1CCc2c(C3=C(Nc4ccccc4)C(=O)NC3=O)c3ccccc3n2C1 [Example 4-54]
82 | 0.033 | 2.71 | – | – | – | CCN(C)C[C@@H]1CCc2c(C3=C(Nc4ccc5c(c4)OCO5)C(=O)NC3=O)c3ccccc3n2C1 [Example 4-49]
85 | 0.007 | 0.592 | – | – | – | O=C1NC(=O)C(c2c3n(c4ccccc24)CC(Cn2ccnc2)C3)=C1Nc1ccccc1 (stereo not drawn) [Example 4-37]
134 | 0.025 | 3.36 | – | – | – | O=C1NC(=O)C(c2c3n(c4ccccc24)CC(CN2CCSCC2)C3)=C1Nc1ccccc1 (stereo not drawn) [Example 4-28]
77 | 0.084 | 6.46 | – | – | – | COC[C@H]1Cc2c(C3=C(Nc4ccc(F)cc4)C(=O)NC3=O)c3ccccc3n2C1 [Example 4-57]
47 | – | – | 0.057 | 2.65 | – | CN1CCCC(Cn2cc(C3=C(Nc4ccccc4)C(=O)NC3=O)c3ccccc32)C1 (stereo not drawn) [Example 3-3, 3-[1-{(1-methylpiperidin-3-yl)methyl}-1H-indol-3-yl]-4-(phenylamino)-1H-pyrrole-2,5-dione]
51 | – | – | 0.005 | 0.257 | – | CN(C)CC1CCn2c(c(C3=C(Nc4ccccc4)C(=O)NC3=O)c3ccccc32)C1 (stereo not drawn) [Example 4-2, 3-[8-(dimethylaminomethyl)-6,7,8,9-tetrahydropyrido[1,2-a]indol-10-yl]-4-(phenylamino)-1H-pyrrole-2,5-dione]
108 | 0.041 | 4.45 | – | – | – | O=C1NC(=O)C(c2c3n(c4ccccc24)C[C@@H](CN2CCOCC2)C3)=C1Nc1ccccc1 [Example 4-71]
61 | – | – | 0.014 | 0.852 | – | O=C1NC(=O)C(c2c3n(c4ccccc24)CCC(CO)C3)=C1Nc1ccccc1 (stereo not drawn) [Example 4-1, 3-[8-hydroxymethyl-6,7,8,9-tetrahydropyrido[1,2-a]indol-10-yl]-4-(phenylamino)-1H-pyrrole-2,5-dione]

More lines, now with the values behind:

SMILES | Ratio α/β [1] | IC50 [1, 3] [µM] | IC50 [2, 4] [µM] | IC50 [1, 5] [µM] | IC50 [2, 6] [µM] | IC50 [1] [µM]
O=C1NC(=O)C(c2cn(CCO)c3ccccc23)=C1Nc1ccccc1 [Example 2-4, 3-[1-(2-hydroxyethyl)-1H-indol-3-yl]-4-(phenylamino)-1H-pyrrole-2,5-dione] | 79 | – | – | 0.073 | 5.8 | –
CN(C)CCCn1cc(C2=C(Nc3cccc(Cl)c3)C(=O)NC2=O)c2ccccc21 [Example 2-12, 3-[1-(3-dimethylaminopropyl)-1H-indol-3-yl]-4-[(3-chlorophenyl)amino]-1H-pyrrole-2,5-dione] | 56 | – | – | 0.01 | 0.558 | –
CN(C)CCN(C)CCCn1cc(C2=C(Nc3ccccc3)C(=O)NC2=O)c2ccccc21 [Example 2-14, 3-[1-{3-[N-(2-dimethylaminoethyl)-N-methylamino)propyl}-1H-indol-3-yl]-4-(phenylamino)-1H-pyrrole-2,5-dione] | 70 | – | – | 0.04 | 2.79 | –
O=C1NC(=O)C(c2c3n(c4ccccc24)C[C@@H](CO)C3)=C1Nc1ccccc1 [Example 4-60] | 115 | – | 0.458 | 0.004 | – | –
Cc1cccc(NC2=C(c3cn(CCCN(C)C)c4ccccc34)C(=O)NC2=O)c1 [Example 2-11, 3-[1-(3-dimethylaminopropyl)-1H-indol-3-yl]-4-[(3-methylphenyl)amino]-1H-pyrrole-2,5-dione] | 49 | – | – | 0.015 | 0.727 | –
Cc1cccc(NC2=C(c3c[nH]c4ccccc34)C(=O)NC2=O)c1 [Example 1-5, 3-(1H-indol-3-yl)-4-[(3-methylphenyl)amino]-1H-pyrrole-2,5-dione] | 33 | – | – | 0.151 | 4.92 | –
CN(C)CCCCn1cc(C2=C(Nc3ccccc3)C(=O)NC2=O)c2ccccc21 [Example 2-10, 3-[1-(4-dimethylaminobutyl)-1H-indol-3-yl]-4-(phenylamino)-1H-pyrrole-2,5-dione] | 49 | – | – | 0.015 | 0.73 | –
O=C1NC(=O)C(c2c[nH]c3ccccc23)=C1Nc1cccc(F)c1 [Example 1-12, 3-[(3-fluorophenyl)amino]-4-(1H-indol-3-yl)-1H-pyrrole-2,5-dione] | 29 | – | – | 0.249 | 7.16 | –
Cc1cccc(NC2=C(c3cn(CCCO)c4ccccc34)C(=O)NC2=O)c1 [Example 2-2, 3-[1-(3-hydroxypropyl)-1H-indol-3-yl]-4-[(3-methylphenyl)amino]-1H-pyrrole-2,5-dione] | 70 | – | – | 0.041 | 2.86 | –
O=C1NC(=O)C(c2cn(CCCN3CCC(O)CC3)c3ccccc23)=C1Nc1ccccc1 [Example 2-25, 3-[1-{3-(4-hydroxypiperidino)propyl}-1H-indol-3-yl]-4-(phenylamino)-1H-pyrrole-2,5-dione] | 46 | – | – | 0.009 | 0.413 | –
O=C1NC(=O)C(c2cn(CCCn3ccnc3)c3ccccc23)=C1Nc1ccccc1 [Example 2-36, 3-[1-(3-imidazol-1-ylpropyl)-1H-indol-3-yl]-4-(phenylamino)-1H-pyrrole-2,5-dione] | – | – | – | 0.005 | 0.331 | –
O=C1NC(=O)C(c2cn(CCCn3ccnc3)c3ccccc23)=C1Nc1ccc(Cl)cc1 [Example 2-64, 3-[(4-chlorophenyl)amino]-4-[1-(3-imidazol-1-ylpropyl)-1H-indol-3-yl]-1H-pyrrole-2,5-dione] | 37 | – | – | 0.02 | 0.739 | –
CN(C)C[C@@H]1CCc2c(C3=C(Nc4ccccc4)C(=O)NC3=O)c3ccccc3n2C1 [Example 4-41] | 74 | – | 0.445 | 0.006 | – | –
O=C1NC(=O)C(c2cn(CCCn3ccnc3)c3ccccc23)=C1Nc1ccc(Br)cc1 [Example 2-66, 3-[(4-bromophenyl)amino]-4-[1-(3-imidazol-1-ylpropyl)-1H-indol-3-yl]-1H-pyrrole-2,5-dione] | 34 | – | – | 0.027 | 0.908 | –
CN1CCN(CCCCn2cc(C3=C(Nc4ccccc4)C(=O)NC3=O)c3ccccc32)CC1 [Example 2-29, 3-[1-{4-(4-methylpiperazin-1-yl)butyl}-1H-indol-3-yl]-4-(phenylamino)-1H-pyrrole-2,5-dione] | 75 | – | – | 0.025 | 1.87 | –
CN(C)CCn1cc(C2=C(Nc3ccccc3)C(=O)NC2=O)c2ccccc21 [Example 2-9, 3-[1-(2-dimethylaminoethyl)-1H-indol-3-yl]-4-(phenylamino)-1H-pyrrole-2,5-dione] | 77 | – | – | 0.028 | 2.16 | –
O=C1NC(=O)C(c2cn(CCCO)c3ccccc23)=C1Nc1cccc(Cl)c1 [Example 2-3, 3-[(3-chlorophenyl)amino]-4-[1-(3-hydroxypropyl)-1H-indol-3-yl]-1H-pyrrole-2,5-dione] | 85 | – | – | 0.046 | 3.9 | –
O=C1NC(=O)C(c2cn(CCN3CCC(O)CC3)c3ccccc23)=C1Nc1ccccc1 [Example 2-47, 3-[1-{2-(4-hydroxypiperidino)ethyl}-1H-indol-3-yl]-4-(phenylamino)-1H-pyrrole-2,5-dione] | 36 | – | – | 0.066 | 2.34 | –
O=C1NC(=O)C(c2cn(CCCn3ccnc3)c3ccccc23)=C1Nc1ccc(F)cc1 [Example 2-68, 3-[(4-fluorophenyl)amino]-4-[1-(3-imidazol-1-ylpropyl)-1H-indol-3-yl]-1H-pyrrole-2,5-dione] | 53 | – | – | 0.006 | 0.315 | –
O=C1NC(=O)C(c2cn(CCCN3CCCCCC3)c3ccccc23)=C1Nc1ccccc1 [Example 2-23, 3-[1-(3-azacycloheptan-1-ylpropyl)-1H-indol-3-yl]-4-(phenylamino)-1H-pyrrole-2,5-dione] | – | – | – | – | – | 0.01

From patent publication EP1120414A1, “DISUBSTITUTED MALEIMIDE COMPOUNDS AND MEDICINAL UTILIZATION THEREOF” (Japan Tobacco Inc., priority 1998, dated 2000)
